The text below walks through data of PubChem BioAssay (NCI).

Test systems include COLO 205 colon; HCT-15 colon; HOP-92 NSCLC; KM12 colon; NCI-H226 lung; NCI-H23 lung; NCI-H522 lung; U251 CNS; 786-0 renal; ACHN renal; PC-3 prostate; SR leukemia; MALME-3M melanoma; BT-549 breast.
Common to all, as to assay: DTP human tumour cell line panel, 48 h

“And” between values parts separate entries of the source, which are not always exact repeats. Equal entries are not always repeated.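 Method: 48-hour compound exposure of cells in 96-well plates, five concentrations, linear interpolation of endpoints. Here, GI50 denotes the concentration required for 50% inhibition of growth. TGI denotes the concentration required for complete inhibition of growth.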

In the case of `CC12CCC3C(CCC4=CC(O)CCC43C=O)C1(O)CCC2c1ccc(=O)oc1` (stereo not given), the GI50 was 0.05 µM in the experiment with COLO 205 colon; 0.0125 µM in the experiment on HCT-15 colon; 0.05 µM in the experiment with KM12 colon; 0.0866 µM with NCI-H226 lung; 0.05 µM with U251 CNS. In addition, the TGI is 0.0596 µM and 0.0909 µM in the experiment on COLO 205 colon; 0.107 µM and 0.0622 µM in the experiment on HCT-15 colon; 0.0404 µM with HOP-92 NSCLC; 0.0935 µM and 0.0832 µM in the experiment on KM12 colon; 0.0831 µM and 0.21 µM with NCI-H226 lung; 0.0151 µM in the experiment on NCI-H23 lung. The TGI is 0.00741 µM with NCI-H522 lung; 0.0292 µM and 0.064 µM with U251 CNS.
Consider `CC(=O)Nc1ccc(-c2nc3ccccc3s2)cc1`, for which the TGI is 64.8 µM in the experiment on 786-0 renal; 92.3 µM with ACHN renal; above 100 µM in the experiment with COLO 205 colon; above 100 µM with HCT-15 colon; above 100 µM in the experiment with HOP-92 NSCLC; above 100 µM with KM12 colon. Moreover, the TGI was above 100 µM in the experiment on NCI-H226 lung; above 100 µM in the experiment on NCI-H23 lung; above 100 µM in the experiment on PC-3 prostate; above 100 µM in the experiment with SR leukemia; 92.6 µM in the experiment on U251 CNS.
In the case of `CC(C)C1=C(Cc2ccccc2)C(=O)O/C1=C\c1cc(Cl)c(O)c(Cl)c1`, the TGI in the experiment with 786-0 renal stood at 32.1 µM; in the experiment on ACHN renal, 33 µM; with COLO 205 colon it was 35.3 µM; with HCT-15 colon, 39.7 µM; with KM12 colon, 35.1 µM; in the experiment with MALME-3M melanoma, 36.6 µM. In addition, the TGI was determined as 39.5 µM in the experiment on NCI-H226 lung; 32.9 µM in the experiment with NCI-H23 lung; 31.1 µM in the experiment with PC-3 prostate; 66.8 µM in the experiment on SR leukemia; 31.8 µM in the experiment on U251 CNS.
On to `Cc1ccsc1/C=N/Nc1ccc2ccccc2n1`, for which the TGI in the experiment with 786-0 renal is above 100 µM; with ACHN renal, above 100 µM; with BT-549 breast it was above 100 µM; in the experiment with COLO 205 colon, above 100 µM; in the experiment on HCT-15 colon, above 100 µM; in the experiment on HOP-92 NSCLC it was 82 µM. In addition, the TGI with KM12 colon, in the experiment with NCI-H226 lung, in the experiment with NCI-H23 lung, in the experiment on PC-3 prostate and with U251 CNS was above 100 µM throughout.
Consider `CCCC(O)C(NC(=O)CCl)C(=O)O` (stereo not given), for which the TGI in the experiment with COLO 205 colon, in the experiment on HCT-15 colon, with HOP-92 NSCLC, with KM12 colon, in the experiment with MALME-3M melanoma and in the experiment with NCI-H226 lung was above 100 µM each time. In addition, the TGI with NCI-H23 lung, in the experiment on NCI-H522 lung and in the experiment on U251 CNS was above 100 µM throughout.
Consider `CN(C)/C=N/n1c2ccccc2c2ccccc21`, for which the TGI with 786-0 renal, with ACHN renal, in the experiment on COLO 205 colon, with HCT-15 colon, with KM12 colon and with MALME-3M melanoma was above 100 µM in each case. Moreover, the TGI in the experiment on NCI-H226 lung, in the experiment with NCI-H23 lung, with NCI-H522 lung, in the experiment on PC-3 prostate, in the experiment with SR leukemia and with U251 CNS was above 100 µM throughout.
Take `CC12CC(C#N)(C#N)C(C#N)(CO1)C(=N)O2` (stereo not given): the TGI in the experiment on 786-0 renal, with ACHN renal, with BT-549 breast, in the experiment on COLO 205 colon, in the experiment on HCT-15 colon and with HOP-92 NSCLC was above 100 µM in each case. The TGI is above 100 µM in the experiment with KM12 colon; 90.8 µM in the experiment on MALME-3M melanoma; above 100 µM in the experiment on NCI-H226 lung; above 100 µM in the experiment with NCI-H23 lung; above 100 µM in the experiment on PC-3 prostate; above 100 µM in the experiment on U251 CNS.
Regarding `CN1C(=O)C(CC=O)(C(C)(C)C)c2ccccc21` (stereo not given), the total growth inhibition concentration (TGI) in the experiment with 786-0 renal, with ACHN renal, in the experiment with COLO 205 colon, with HCT-15 colon, with HOP-92 NSCLC and with KM12 colon was above 100 µM each time. Moreover, the TGI in the experiment on NCI-H23 lung, in the experiment on PC-3 prostate, in the experiment on SR leukemia and in the experiment with U251 CNS was above 100 µM in each case.
For the compound `CCOP(=O)(O)C(C)(C)NC`, the TGI in the experiment with 786-0 renal, in the experiment with ACHN renal, with COLO 205 colon, with HCT-15 colon, in the experiment on HOP-92 NSCLC and in the experiment with KM12 colon was above 100 µM throughout. Moreover, the TGI in the experiment with MALME-3M melanoma, with NCI-H226 lung, with NCI-H23 lung, with NCI-H522 lung, with PC-3 prostate and in the experiment with U251 CNS was above 100 µM in each case.
In the case of `CC1C[C@]2(C)C(=O)Nc3ccccc3[C@@H]2Nc2ccccc21` (stereo not given in full), the TGI with 786-0 renal is 45.2 µM; in the experiment on ACHN renal it was above 100 µM; in the experiment on COLO 205 colon, 34 µM; with HCT-15 colon it was above 100 µM; with HOP-92 NSCLC, 27.6 µM; with KM12 colon, 39.1 µM. Moreover, the TGI in the experiment on MALME-3M melanoma amounted to 62 µM; in the experiment on NCI-H226 lung it was 76.1 µM; in the experiment on NCI-H23 lung it was 54.8 µM; in the experiment with PC-3 prostate, 61.3 µM; in the experiment with SR leukemia it was 41.4 µM.
On to `CCOC(=O)c1ccc(NC(=O)O/N=C(/Cl)CCl)cc1`, for which the TGI in the experiment with 786-0 renal, with ACHN renal, in the experiment with COLO 205 colon, with HCT-15 colon, in the experiment on KM12 colon and in the experiment with MALME-3M melanoma was above 100 µM throughout. In addition, the TGI in the experiment on NCI-H23 lung, with PC-3 prostate, in the experiment with SR leukemia and with U251 CNS was above 100 µM in each case.
On to `CC(C)(C)[Si](C)(C)OC1/C(=C/C#N)C(n2ccc(=O)[nH]c2=O)OC1CO` (stereo not given), for which the TGI in the experiment on 786-0 renal, in the experiment with ACHN renal, with COLO 205 colon, with HOP-92 NSCLC, in the experiment with KM12 colon and in the experiment on MALME-3M melanoma was above 100 µM each time. Moreover, the TGI in the experiment with NCI-H23 lung, with NCI-H522 lung, in the experiment on PC-3 prostate, in the experiment on SR leukemia and with U251 CNS was above 100 µM in each case.
For `CCc1nc2ccc(N=NN(C)C)cc2[nH]1`, the TGI with 786-0 renal, in the experiment with ACHN renal, in the experiment with BT-549 breast, in the experiment with COLO 205 colon, with HCT-15 colon and in the experiment with KM12 colon was above 100 µM each time. In addition, the TGI with MALME-3M melanoma, with NCI-H226 lung, in the experiment with NCI-H23 lung, with NCI-H522 lung, with PC-3 prostate and in the experiment with U251 CNS was above 100 µM each time.
